The source of these data is patent US20120115817A1, “PHTHALIMIDE DERIVATIVES OF NON-STEROIDAL ANTI-INFLAMMATORY COMPOUNDS AND/OR TNF-ALPHA MODULATORS, METHOD FOR PRODUCING SAME, PHARMACEUTICAL COMPOSITIONS CONTAINING SAME AND USES THEREOF FOR THE TREATMENT OF INFLAMMATORY DISEASES” (EMS S.A., priority 2009, published 2012).

SMILES strings stand for the structures. Entries after “also recorded” stand apart in the source; their conditions may differ.

Series [1] deals with rat paw edema induced by carrageenan. Put plainly: Rat paw edema induced by carrageenan. Type of series: in vivo, Wistar rat. Conditions: orally; for anti-inflammatory activity compared with carrageenan-only control / anti-inflammatory activity compared with the standard NSAID: single dose of 100 μmol/kg. On the procedure: The anti-inflammatory activity of new phthalmidic derivatives claimed in this patent was evaluated through the model of paw edema induced by carrageenin.
The methodology to be reported can be found in detail in Bandarage, U. K.; Chen, L.; Fang, X.; Garvey, U. S.; Glavin, A.; Janero, D. R.; Letts, L. G.; Mercer, G. J.; Saha, J. K.; Schroeder, J. D.; Shumway, M. J.; Tam, S. W. Nitrosothiol Esters of Diclofenac: Synthesis and Pharmacological Characterization of the Gastrointestinal-Sparing Prodrugs. J. Med. Chem. v. 43, p. 4005-4016, 2000.
The injection of carrageenan in Wistar rat paw causes edema and local inflammation which can be seen by the increased thickness of the rat paw. Pre-treatment with compounds that have anti-inflammatory activity decreases the edema and inflammation caused by carrageenan administration.
The compounds of this invention have been administrated one (1) hour before inoculation of the irritating agent, carrageenan in the paws of the animals with the aid of a gavage tube orally, using water as a solvent.
The monitoring of the inflammation and the anti-inflammatory activity of the compounds of the invention was made by measuring the thickness in millimeters, of the rat's paw.
The control group received sub plantar injection, in the hind paws, the irritating chemical agent, carrageenan, and saline solution, orally.
The hind paws were measured before treatment and hourly for 6 hours after administration of carrageenan, through the thickness to determine their volumes (in mm). The results were expressed as the difference between the readings of the paws before and after treatments.

Series [2] concerns abdominal contortions induced by acetic acid. Put plainly: Abdominal contortion test induced by acetic acid. Type of series: in vivo, Swiss mice. Conditions: mice, oral; for inhibitory activity of abdominal contortion: 100 μmol/kg (FIG. 8); for Average (abdominal contortions): acetic acid 0.1 N; for % of inhibition of abdominal contortions: acetic acid 0.1 N (Table 2). The method, then: Additionally, we conducted the evaluation of possible adverse reactions of the compounds of the invention through the abdominal contortion test induced by acetic acid. […] The results are represented in FIG. 8.
The antinociceptive profile was evaluated by testing abdominal contortions induced by acetic acid in mice. In this assay, there were used Swiss mice of both sexes weighing between 21 and 28 g, fasted for a period of approximately 8 hours. The test-substance was administered orally and had as the gum Arabic at 5% as vehicle. One hour later, it was administered acetic acid at 0.1 N (0.1 mL/10 g weight) in the peritoneal cavity of the animals. Ten minutes after injection of acetic acid, the contortions were counted for 20 minutes.

For a further series, the system named is gastric mucosa. Put plainly: Gastric lesion test (gastric ulcerogenesis). Format: in vivo, rat. Set-up: key to grade of gastric lesion (ulceration): ground zero for the ulceration of compounds that do not damage the gastric lining; lesions <1 mm=grade 1; 1.5 to 2.5 mm grade 2; 2.5 to 3.5 mm=grade 3; 3.5 to 4.5 mm, and grade 4; >4.5 mm=grade 5. Conditions: for grade of gastric lesion (ulceration) / change in color or morphology of the gastric mucosa / lesion on the gastric lining / gastric ulceration: single dose of 100 μmol/kg; for grade of gastric lesion (ulceration): scale zero to 5. The source says: We performed the evaluation of gastric lesions caused by new anti-inflammatory derived from phthalimide of the invention and compared with standard anti-inflammatory drugs (without molecular modification). The compounds were classified according to the grade of damage caused on a scale ranging from 1-5. It was assumed that: lesions <1 mm=grade 1, 1.5 to 2.5 mm grade 2, 2.5 to 3.5 mm=grade 3, 3.5 to 4.5 mm, and grade 4=>4.5 mm=grade 5. The results obtained were reported as averages±E. P. M. All results were submitted to the variance homogeneity test (Levene's Test) to confirm homogeneity. The results with not significant p (above 0.05), were subsequently subjected to Variance Analysis (ANOVA) followed by multiple comparison test (post hoc analyses) such as the Newman-Keul's test, and only the values of p were considered when they were equal or below 0.05.
The stomachs were also evaluated on the number of lesions observed.
In order to characterize the profile of gastric lesion caused by the new anti-inflammatory derivatives of the invention the extent of the lesions caused by the administration of said anti-inflammatory agents was measured.
The gastric ulcerogenesis was verified in the same animals from the groups used for the paw's edema model.
After six hours of readings of the legs, the animals were euthanized in CO2 and had their stomachs removed, opened towards greater curvature and washed with saline.
Through the exposure of the mucosa its color and integrity were shown. In the case of the existence of lesions, these were counted and measured according to the rate of gastric ulcerogenesis (IUG), which abides by numerical criteria for the classification of gastric mucosal lesions: (lesions <1 mm=1; 1.5 to 2.5 mm=2; 2.5 to 3.5 mm=3, 3.5 to 4.5 mm=4 and >4.5 mm=5). The results obtained were reported as averages±E. P. M.

Series [3] has as its system abdominal contortions induced by acetic acid. Conditions: reports in the literature; cited from earlier work.

Turning to `O=C(NN1C(=O)c2ccccc2C1=O)c1ccccc1O` [Example 1.3, N-(1,3-dioxy-1,3-dihydro-2H-isoindol-2-yl)-2-hydroxybenzamide], the “anti-inflammatory activity compared with carrageenan-only control” value in series [1] is reported as “significant anti-inflammatory activity”. Also, in series [2] (100 μmol/kg), the “analgesic activity” value was “showed no analgesic activity”, the “Average (abdominal contortions)” value amounted to 54.5 and the “% of inhibition of abdominal contortions” value worked out at 17.2%. Also, in series [2], the “inhibitory activity of abdominal contortion” value (from here on “inhibitory activity”) was “around 17.2%”. The “total area of lesions” value with gastric mucosa (observed in six stomachs, 100 μmol/kg) came out at 2.9 mm^2. The “size of microlesions on the stomach lining” value in the series with gastric mucosa (rat, 100 μmol/kg) was “less than 1 mm”. In the series with gastric mucosa (rat), the “grade of gastric lesion (ulceration)” value was 1 (lesions <1 mm=grade 1).

On to `CC(C)Cc1ccc(C(C)C(=O)NN2C(=O)c3ccccc3C2=O)cc1` (stereo not shown) [Example 2.3, N-(1,3-dioxy-1,3-dihydro-2H-isoindol-2-yl)-2-(4-isobutylphenyl)propanamide], for which, in series [1], the “anti-inflammatory activity compared with carrageenan-only control” value is “significant anti-inflammatory activity” and the “anti-inflammatory activity compared with the standard NSAID” value was “superior activity compared with ibuprofen”. Also, in the series with gastric mucosa (rat), the “change in color or morphology of the gastric mucosa” value (from here on “change in color or morphology”) is “a little change in color of the mucosa”, the “lesion on the gastric lining / gastric ulceration” value is listed as “no lesion on the gastric lining” and the “grade of gastric lesion (ulceration)” value is on record as “zero”.

As for `COc1ccc2cc(C(C)C(=O)NN3C(=O)c4ccccc4C3=O)ccc2c1` (stereo not shown) [Example 3.3, N-(1,3-dioxy-1,3-dihydro-2H-isoindol-2-yl)-2-(6-methoxy-2-naphtyl)propanamide], in series [1], the “anti-inflammatory activity compared with carrageenan-only control” value was “significant anti-inflammatory activity” and the “anti-inflammatory activity compared with the standard NSAID” value was “superior activity compared with ibuprofen; also recorded: much greater than naproxen”. For the same compound, in series [2], the “inhibitory activity” value was “around 42.5%”. In series [2] (100 μmol/kg), the “Average (abdominal contortions)” value stood at 37.8 and the “% of inhibition of abdominal contortions” value was 42.5%. Besides, in the series on gastric mucosa (rat), the “change in color or morphology” value is “did not observe any—macro- and microscopically—morphological change or in the color of the stomach tissue”; the “lesion on the gastric lining / gastric ulceration” value is given as “no lesion on the gastric lining”; the “grade of gastric lesion (ulceration)” value is given as “zero”.

On to `CC(C(=O)NN1C(=O)c2ccccc2C1=O)c1cccc(C(=O)c2ccccc2)c1` (stereo not shown) [Example 4.3, 2-(3-benzoylphenyl)-N-(1,3-dioxy-1,3-dihydro-2H-isoindol-2-yl)propanamide], for which the “inhibitory activity” value in series [2] is recorded as roughly 37.9%. In series [2] (100 μmol/kg), the “Average (abdominal contortions)” value is listed as 40.8 and the “% of inhibition of abdominal contortions” value came to 37.9%.

As for `O=C(Cc1ccccc1Nc1c(Cl)cccc1Cl)NN1C(=O)c2ccccc2C1=O` [Example 5.3, 2-{2-[(2,6-dichlorophenyl)amino]phenyl}-N-(1,3-dioxy-1,3-dihydro-2H-isoindol-2-yl)acetamide], the “anti-inflammatory activity compared with diclofenac at 120 minutes” value in series [1] (100 μmol/kg, time of 120 minutes) is on record as “significantly higher anti-inflammatory activity than that of diclofenac”. Moreover, in series [1] (100 μmol/kg, times 240 and 360 minutes), the “anti-inflammatory activity compared with diclofenac at 240 and 360 minutes” value was “same activity profile is kept”. In addition, in series [1], the “anti-inflammatory activity compared with carrageenan-only control” value is on record as “significant anti-inflammatory activity”; the “anti-inflammatory activity compared with the standard NSAID” value is “significant anti-inflammatory activity when compared to positive control (carrageenan), and to diclofenac”. Also, the “inhibitory activity” value in series [2] was roughly 16.2%. In addition, in series [2] (100 μmol/kg), the “Average (abdominal contortions)” value is listed as 55.1 and the “% of inhibition of abdominal contortions” value was determined as 16.2%. Besides, in the series on gastric mucosa (rat), the “change in color or morphology” value was “a little change in the color of the mucosa”, the “lesion on the gastric lining / gastric ulceration” value was “no lesion on the gastric lining” and the “grade of gastric lesion (ulceration)” value was “zero”.

On to `Cc1ccc(Nc2c(F)cccc2Cl)c(CC(=O)NN2C(=O)c3ccccc3C2=O)c1` [Example 6.3, 2-{2-[(2-chloro-6-fluorophenyl)amine]-5-methylphenyl}-N-(1,3-dioxy-1,3-dihydro-2H-isoindol-2-1)acetamide], for which the “anti-inflammatory activity compared with carrageenan-only control” value in series [1] was “significant anti-inflammatory activity”. For the same compound, in the series with gastric mucosa (rat), the “change in color or morphology” value was “did not observe any—macro- and microscopically—morphological change or in the color of the stomach tissue”; the “lesion on the gastric lining / gastric ulceration” value is recorded as “no lesion on the gastric lining”; the “grade of gastric lesion (ulceration)” value was “zero”.

For the compound `Cc1ccc(-c2cc(C(F)(F)F)nn2-c2ccc(S(N)(=O)=O)cc2)cc1` [celecoxib, reference compound], the “grade of gastric lesion (ulceration)” value with gastric mucosa (rat) is 2 (1.5 to 2.5 mm grade 2).

`O=C(O)Cc1ccccc1Nc1c(Cl)cccc1Cl` [diclofenac, reference compound]: the “analgesic activity in this model according to the literature” value in series [3] is reported as “do not have analgesic activity”. Further, the “grade of gastric lesion (ulceration)” value with gastric mucosa (rat) is 5 (>4.5 mm=grade 5).

For the compound `CC(C)Cc1ccc(C(C)C(=O)O)cc1` (stereo not shown) [ibuprofen, reference compound], the “grade of gastric lesion (ulceration)” value in the series with gastric mucosa (rat) is 5 (>4.5 mm=grade 5).

Take `Cc1ccc(Nc2c(F)cccc2Cl)c(CC(=O)O)c1` [lumiracoxib, reference compound]: the “grade of gastric lesion (ulceration)” value with gastric mucosa (rat) was 2 (1.5 to 2.5 mm grade 2).

Consider `COc1ccc2cc([C@H](C)C(=O)O)ccc2c1` [naproxen, reference compound], for which the “inhibitory activity” value in series [2] was “about 43%”. Also, the “grade of gastric lesion (ulceration)” value with gastric mucosa (rat) is listed as 5 (>4.5 mm=grade 5).

As to `O=C(O)c1ccccc1O` [salicylic acid, reference compound], the “grade of gastric lesion (ulceration)” value with gastric mucosa (rat) is 5 (>4.5 mm=grade 5).
